The values that follow come from patent EP1705169A2, “Triphenylalkene derivatives and their use as selective estrogen receptor modulators” (priority 1999, dated 2001).

Where two headings read alike, the source gives them in different places.

In this test the test system is MCF-7 cells. Nature of the test: cells. The note with it: for inhibition at 1 µM / Emax / cytotoxicity at 10 µM: Homo sapiens, MCF7, 96 h; for inhibition at 1 µM: read-out: Antagonism at 1 µM (% of full antagonism); for Emax: read-out: Maximal Agonism (% of E2); for Kill of MCF-7 cells (in words): highest investigated concentration (10 µM), Table 2; for Hormonal activity (in words): summary statement referring to Table 2; for Estrogenic and antiestrogenic action (in words): summary statement referring to Tables 2, 3 and 4. Here is the method:
For experiments involving hormone or anti-hormone treatment, the cells in exponential growth phase were precultivated in the absence of estradiol for one day. […] After the incubation period the medium was removed. The exposure to study drugs was started immediately by adding fresh medium with 5 % stripped serum. Half of the cells were grown with estradiol, half without estradiol. Study compounds (dissolved in ethanol in 0.01 M concentration and diluted with the growth medium as appropriate) were added. The final concentrations of the compounds were 1,10, and 100 nM, and 1 and 10 µM. The cells were incubated for four days.
This method allows evaluation of estrogenicity based on the ability of the compounds to stimulate the growth of the estrogen-dependent cells in the absence of estradiol. Estrogenicity was estimated by comparing the maximal growth stimulus (at any concentration) of study compound as per cent from growth stimulus by estradiol (100 % stimulus). […] At high concentrations molecules may also show toxicity. Toxicity was estimated as the fraction of dead cells (i.e. 100 % means that all cells have died during the exposure).

[1] abbreviates: read-out: Maximal Cell Kill (% fraction of dead cells), With estradiol (E2), toxicity at 10 µmol/l, 100 = all cells dead.
The mark [2] stands for this setting: read-out: Maximal Cell Kill (% fraction of dead cells), Without estradiol (E2), toxicity at 10 µmol/l, 100 = all cells dead.

In the case of `OCCOc1ccc(/C(=C(/CCCl)c2ccccc2)c2ccccc2)cc1` [FC-1271a, 2-[4-(4-chloro-1,2-diphenyl-but-1-enyl)phenoxy]ethanol, reference compound], the inhibition at 1 µM was found to be 21% and the Emax stood at 23%. Further, under setting [1], the cytotoxicity at 10 µM turned out to be 80%. Also, under setting [2], the cytotoxicity at 10 µM worked out at 50%.
On to `CCCCN(C)C(=O)CCCCCCCCCC[C@@H]1Cc2cc(O)ccc2[C@H]2CC[C@]3(C)[C@@H](O)CC[C@H]3[C@H]12` [ICI 164,384, reference compound], for which the inhibition at 1 µM is 100% and the Emax was found to be 9%. In addition, under “read-out: Maximal Cell Kill (% fraction of dead cells)”, the cytotoxicity at 10 µM came to 100%.
With `CN(C)CCOc1ccc(/C(=C(\CCCl)c2ccccc2)c2ccc(F)cc2)cc1` [No. 2, (Z)-(2-{4-[4-Chloro-1-(4-fluorophenyl)-2-phenylbut-1-enyl]phenoxy}ethyl)-dimethylamine], the inhibition at 1 µM came out at 29% and the Emax stood at 100%. Also, the cytotoxicity at 10 µM under setting [1] worked out at 100%. Under setting [2], the cytotoxicity at 10 µM came out at 32%.
For `CN(C)CCOc1ccc(/C(=C(/CCCl)c2ccc(Cl)cc2)c2ccc(Cl)cc2)cc1` [No. 4, (E)-(2-{4-[4-Chloro-1,2-bis(4-chlorophenyl)but-1-enyl]phenoxy}ethyl)-dimethylamine], the inhibition at 1 µM came to 10% and the Emax is 10%. Also, the cytotoxicity at 10 µM under setting [1] is 100%. Besides, the cytotoxicity at 10 µM under setting [2] was 90%.
`CN(C)CCOc1ccc(/C(=C(\CCCl)c2ccc(Cl)cc2)c2ccc(Cl)cc2)cc1` [No. 5, (Z)-(2-{4-[4-Chloro-1,2-bis(4-chlorophenyl)but-1-enyl]phenoxy}ethyl)-dimethylamine]: the inhibition at 1 µM was 31% and the Emax stood at 11%. Further, under setting [1], the cytotoxicity at 10 µM is 100%. For the same molecule, the cytotoxicity at 10 µM under setting [2] came to 100%.
As for `OCCOc1ccc(/C(=C(/CCCl)c2ccccc2)c2ccc(F)cc2)cc1` [No. 8, (E)-2-{4-[4-Chloro-2-phenyl-1-(4-fluorophenyl)but-1-enyl]phenoxy} ethanol], the inhibition at 1 µM is 92% and the Emax is 31%. For the same molecule, the cytotoxicity at 10 µM under setting [1] came out at 52%. Further, the cytotoxicity at 10 µM under setting [2] was determined as 2%.
The corresponding values for `OCCOc1ccc(/C(=C(/CCCl)c2ccc(Cl)cc2)c2ccc(Cl)cc2)cc1` [No. 9, (E)-2-{4-[4-Chloro-1,2-bis(4-chlorophenyl)but-1-enyl]phenoxy}ethanol] are 9%, 14%, 62% and 45%.
Take `OCCOc1ccc(C(=C(CCCl)c2ccccc2)c2ccc(OCCO)cc2)cc1` [No. 16, 2-(4-{4-Chloro-1-[4-(2-hydroxyethoxy)phenyl]-2-phenyl-but-1-enyl}phenoxy)-1-ethanol]: the inhibition at 1 µM came out at 23%, the Emax was found to be 22%, the “Kill of MCF-7 cells (in words)” value is listed as “kill MCF-7 cells (human breast cancer cells) effectively” and the “Hormonal activity (in words)” value was “weak hormonal activity”. For the same molecule, the cytotoxicity at 10 µM under setting [1] came to 96%. Also, the cytotoxicity at 10 µM under setting [2] is 90%.
Turning to `OCCOc1ccc(/C(=C(/CCCl)c2ccccc2)c2ccc(Cl)cc2)cc1` [No. 17, (E)-2-{4-[4-Chloro-2-phenyl-1-(4-chlorophenyl)but-1-enyl]phenoxy} ethanol], the inhibition at 1 µM came to 17% and the Emax was 0%. In addition, the cytotoxicity at 10 µM under setting [1] was determined as 38%. Moreover, under setting [2], the cytotoxicity at 10 µM worked out at 44%.
As to `OCCOc1cccc(/C(=C(/CCCl)c2ccccc2)c2ccccc2)c1` [No. 18, (Z)-2-[3-(4-Chloro-1,2-diphenyl-but-1-enyl)phenoxy]ethanol], the inhibition at 1 µM was determined as 1%; the “Estrogenic and antiestrogenic action (in words)” value was “weak estrogenic and no antiestrogenic action”. Also, under setting [1], the cytotoxicity at 10 µM is 40%. For the same molecule, the cytotoxicity at 10 µM under setting [2] is 10%.
Take `CN(C)CCOc1ccc(/C(=C(/CCCl)c2ccc(Cl)cc2)c2ccccc2)cc1` [No. 23, (Z)-(2-{4-[4-Chloro-2-(4-chlorophenyl)-1-phenylbut-1-enyl]phenoxy}ethyl)-dimethylamine]: the inhibition at 1 µM was found to be 5% and the Emax worked out at 14%. For the same molecule, the cytotoxicity at 10 µM under setting [1] is 93%. Besides, under setting [2], the cytotoxicity at 10 µM is 89%.
The corresponding values for `CN(C)CCOc1ccc(/C(=C(\CCCl)c2ccc(Cl)cc2)c2ccccc2)cc1` [No. 24, (E)-(2-{4-[4-Chloro-2-(4-chlorophenyl)-1-phenylbut-1-enyl]phenoxy}ethyl)-dimethylamine] are 4%, 46%, 98% and 89%.
With `CN(C)CCOc1ccc(/C(=C(/CCCl)c2ccc(F)cc2)c2ccccc2)cc1` [No. 25, (Z)-(2-{4-[4-Chloro-2-(4-fluorophenyl)-1-phenylbut-1-enyl]phenoxy}ethyl)-dimethylamine], the inhibition at 1 µM is 6%; the Emax worked out at 17%; the “Estrogenic and antiestrogenic action (in words)” value is “weak estrogenic and no antiestrogenic action”. Under setting [1], the cytotoxicity at 10 µM turned out to be 27%. Under setting [2], the cytotoxicity at 10 µM amounted to 42%.
For the molecule `COc1ccc(/C(=C(\CCCl)c2ccc(Cl)cc2)c2ccc(OCCN(C)C)cc2)cc1` [No. 26, (Z)-(2-{4-[4-Chloro-2-(4-chlorophenyl)-1-(4-methoxyphenyl)but-1-enyl]phenoxy}-ethyl)dimethylamine], the inhibition at 1 µM was found to be 11%, the Emax amounted to 0%, the “Kill of MCF-7 cells (in words)” value is given as “kill MCF-7 cells (human breast cancer cells) effectively” and the “Hormonal activity (in words)” value was “weak hormonal activity”. In addition, the cytotoxicity at 10 µM under setting [1] was determined as 98%. Besides, the cytotoxicity at 10 µM under setting [2] worked out at 97%.
As to `COc1ccc(/C(=C(/CCCl)c2ccc(Cl)cc2)c2ccc(OCCN(C)C)cc2)cc1` [No. 27, (E)-(2-{4-[4-Chloro-2-(4-chlorophenyl)-1-(4-methoxyphenyl)but-1-enyl]phenoxy}-ethyl)dimethylamine], the inhibition at 1 µM amounted to 5%, the Emax was 0%, the “Kill of MCF-7 cells (in words)” value is given as “kill MCF-7 cells (human breast cancer cells) effectively” and the “Hormonal activity (in words)” value is recorded as “weak hormonal activity”. The cytotoxicity at 10 µM under setting [1] was 100%. Further, the cytotoxicity at 10 µM under setting [2] was 99%.
For `OCCOc1ccc(/C(=C(/CCCl)c2ccccc2)c2cccc(O)c2)cc1` [No. 34, (E)-3-{4-Chloro-1-[4-(2-hydroxyethoxy)phenyl]-2-phenyl-but-1-enyl}-phenol], the inhibition at 1 µM amounted to 0% and the Emax is 0%. Besides, the cytotoxicity at 10 µM under setting [1] is 0%. Moreover, the cytotoxicity at 10 µM under setting [2] stood at 0%.
On to `COc1ccc(/C(=C(\CCCl)c2ccc(Cl)cc2)c2ccc(OCCO)cc2)cc1` [No. 37, (Z)-2-{4-[4-Chloro-2-(4-chlorophenyl)-1-(4-methoxyphenyl)but-1-enyl]-phenoxy} ethanol], for which the inhibition at 1 µM turned out to be 0% and the Emax came out at 4%. Also, the cytotoxicity at 10 µM under setting [1] was 41%. For the same molecule, under setting [2], the cytotoxicity at 10 µM turned out to be 39%.
